Test results taken from patent US20200390101A1, “MICROBICIDAL COMPOSITION” (DOW GLOBAL TECHNOLOGIES LLC, priority 2017, published 2020).

Test system: anaerobic sulfate-reducing bacteria
Experiment: Sulfide control efficacy against anaerobic sulfate-reducing bacteria (colorimetric sulfide measurement after 2 days at 35° C.)
Type: cell-based
Settings: for Sulfide (ppm): sulfide level at the listed THPS/nitrate concentrations after 2 days at 35° C.
Method: Inside an anaerobic chamber (Bactron anaerobic chamber), a deoxygenated sterile salt solution (3.12 g of NaCl, 0.13 g of NaHCO3, 0.17 g of Na2SO4, 47.70 mg of KC1, 72.00 mg of CaCl2, 54.49 mg of MgSO4, 43.92 mg of Na2CO3 in 1 L water and then enriched with 5% of ATCC 1249 Modified Baar's Medium) was inoculated with a sulfate-reducing bacteria which has a high similarity in 16S rRNA gene sequence with Desulfovibrio alaskensis and Desulfovibrio vietnamensis, at a final bacterial concentrations of 10^7 CFU/mL. […] After the mixtures were incubated at 35° C. for 2 days, sulfide level in all treatments including non THPS and or nitrate controls were measured using a colorimetric method described by D. Andrew et. al in “Standard Methods for the Examination of Water and Wastewater 4500-S2-”, with a scaled down sample size (250 μl) and reagents (scaled down accordingly) to allow the analysis to be done in 96-well micro-titer plates. Final results were read using a 96-well plate reader (TECAN Sunrise) at wavelength of 580 nm.
SI is calculated as follows:
Ca/CA+Cb/CB=Synergy Index (“SI”)

Row | Molecule | Active ppm concentration required to control sulfide below 10 ppm, Nitrate (nitrate component (sodium nitrate), 10^7 CFU/mL, 35° C., 2 days, anaerobic) [ppm] | Sulfide (ppm) | Active ppm concentration required to control sulfide below 10 ppm, THPS (THPS component, 10^7 CFU/mL, 35° C., 2 days, anaerobic) [ppm]
1 | O=[N+]([O-])[O-].[Na+] [THPS:Nitrate 0:1, sodium nitrate] | >800 | 74.26 | –
2 | tetrakis(hydroxymethyl) phosphonium sulfate [THPS:Nitrate 1:0] | – | 2.48 | 12.50
